pKi: −log10 of the molar value.

The values that follow come from patent US11549123B2, “Plant EPSP synthases and methods of use” (PIONEER HI-BRED INTERNATIONAL, INC., priority 2015, dated 2023).

Format in all cases: biochemical
Assay [1] addresses T1, Zea mays EPSPS, native, SEQ ID NO:2 (Zea mays, UniProt O24566).
T1 construct: E. coli BL21(DE3), Ni-NTA purified
T1 sequence (O24566 with tags, fused parts or gaps): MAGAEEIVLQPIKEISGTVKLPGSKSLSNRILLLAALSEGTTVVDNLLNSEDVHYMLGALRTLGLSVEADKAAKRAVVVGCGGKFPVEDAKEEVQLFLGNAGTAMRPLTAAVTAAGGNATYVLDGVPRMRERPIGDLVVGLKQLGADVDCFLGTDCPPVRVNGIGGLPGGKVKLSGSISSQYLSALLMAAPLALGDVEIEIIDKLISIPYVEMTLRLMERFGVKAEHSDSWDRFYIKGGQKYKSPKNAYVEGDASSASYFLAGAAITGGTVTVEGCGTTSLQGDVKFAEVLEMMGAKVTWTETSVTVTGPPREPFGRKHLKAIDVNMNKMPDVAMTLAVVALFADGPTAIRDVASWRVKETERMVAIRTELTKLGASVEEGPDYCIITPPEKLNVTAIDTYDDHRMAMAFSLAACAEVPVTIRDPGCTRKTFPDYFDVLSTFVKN
As to the kind of experiment: Rapid two-rate method for (kcat/KM)*KI (30 uM PEP, with or without 1 mM glyphosate), native maize. The following applies: Zm native, [E] 0.007 uM, [Gly] 0.5 uM. The source says: In the Michaelis-Menten equation for steady state reaction velocity with competitive inhibition, the term (kcat/KM)*KI cannot be isolated due to the KM and [S] terms in the denominator. However, if two rate measurements are made at different inhibitor concentrations, those terms can be eliminated by subtraction and (kcat/KM)*KI isolated, as follows:
[formula] where v0 and v1 are initial velocities without and with inhibitor but at the same substrate and enzyme concentrations. Although Equations 2 and 3 are equally valid, to generate the data in Table 1, rate measurement was performed with and without inhibitor using Equation 3. Source of Reagents, Enzyme and Variants
EPSPS activity was determined by quantifying the phosphate generated by the reaction. Release of phosphate was coupled to reaction with MESG, catalyzed by purine-nucleoside phosphorylase, using standard methods. The absorbance change that occurs was monitored continuously at 360 nm, where the extinction is 11,200 M-1 cm-1, with a Spectramax plate reader (Molecular Devices). […] The enzyme concentration was adjusted so as to generate sufficient signal without exceeding the limit for linear initial reaction rates. […]
There are several practical considerations for accurately estimating (kcat/KM)*KI with the rapid method. […] Conditions can be set so that variants with a pre-determined minimal fitness level are accurately quantified. […]

Assay [2] has as its target Helianthus annuus EPSPS with 868-H6 mutations, SEQ ID NO:10 (Helianthus annuus, UniProt A0A251S0N3, A489G/D475G/E144Q/E375S/E464G/G175A/L171C/Q70R/R514Q/S352A/T434S/T72W/V156R/V281L/V511R). The assay can be described thus: EPSPS substrate saturation kinetics, sunflower H6. How it is done:
(§1) EPSPS activity was determined by quantifying the phosphate generated from the EPSPS reaction. Release of inorganic phosphate was coupled to reaction with 2-amino-6-mercapto-7-methylpurine ribonucleoside, catalyzed by purine-nucleoside phosphorylase (M R Webb, Proc. Natl. Acad. Sci. 89:4884-4887, 1992). The absorbance change that occurs was monitored at 360 nm, where the extinction is 11,200 M^−1 cm^−1, with a Spectramax plate reader (Molecular Devices). To determine kinetic parameters, the varied substrate was present at seven concentrations (the eighth being the blank, containing no substrate) ranging from 4 to 400 uM and the unvaried substrate present at saturation. […] Reactions were monitored with a Spectramax plate reader. […] KI was then calculated from the following form of the Michaelis-Menten equation for competitive inhibition: KI=KM[I]/(KM app−KM) KM approximates the dissociation constant of the enzyme-substrate complex while kcat is the rate of conversion of substrate to product when the substrate concentration is saturating. kcat/KM is a widely accepted parameter for catalytic efficiency when substrate concentration is low (˜KM). […] The parameter kcat/KM×KI is used to quantify both catalytic efficiency and insensitivity and thus the overall fitness of the enzyme.
(§2) Native EPSPS amino acid sequences of rice (Oryza sativa) (SEQ ID NO:7), sorghum (Sorghum halepense) (SEQ ID NO:8), and sunflower (Helianthus annus) (SEQ ID NO:9) including the chloroplast transit peptide sequences were assembled and analyzed for mapping the corresponding amino acid mutations from the maize 868-H6. […]
(§3) ChloroP Prediction Server (Emanuelsson, O. et al. 1999. Protein Sci. 8(5):978-84) was used to approximate the amino terminus of the mature EPSPS proteins. […] The synthetic genes were cloned into a plasmid vector and expressed, purified and analyzed as described in Example 1.

In assay [3] the test system is Helianthus annuus EPSPS with 868-H6 mutations, SEQ ID NO:10. The assay can be described thus: EPSPS substrate saturation kinetics, sunflower H6. The conditions noted are these: PEP. How it is done:
as §1, §2, §3

Sequence of Helianthus annuus EPSPS with 868-H6 mutations, SEQ ID NO:10 (Helianthus annuus, UniProt A0A251S0N3, A489G/D475G/E144Q/E375S/E464G/G175A/L171C/Q70R/R514Q/S352A/T434S/T72W/V156R/V281L/V511R) (A0A251S0N3 67-518 with the stated changes): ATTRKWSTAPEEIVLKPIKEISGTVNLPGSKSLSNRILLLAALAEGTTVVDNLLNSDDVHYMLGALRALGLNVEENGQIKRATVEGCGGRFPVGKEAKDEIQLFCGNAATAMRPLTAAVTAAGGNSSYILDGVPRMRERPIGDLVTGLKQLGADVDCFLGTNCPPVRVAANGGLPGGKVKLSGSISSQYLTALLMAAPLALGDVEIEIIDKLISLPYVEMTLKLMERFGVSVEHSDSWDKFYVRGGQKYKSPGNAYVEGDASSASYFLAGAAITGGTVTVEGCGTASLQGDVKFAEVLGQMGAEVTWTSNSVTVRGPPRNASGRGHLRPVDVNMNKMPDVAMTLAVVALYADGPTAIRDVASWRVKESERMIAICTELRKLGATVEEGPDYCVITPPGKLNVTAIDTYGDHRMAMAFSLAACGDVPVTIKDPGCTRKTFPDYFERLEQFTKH

`O=C(O)CNCP(=O)(O)O` [glyphosate, N-phosphonomethylglycine]: the “(kcat/KM)*KI” value worked out at 11 in assay [1] and 8960 in assay [2] (PEP as substrate, glyphosate as inhibitor). For the same molecule, the pKi (usually the Ki on a negative log10 scale, so that one unit is a factor of ten) in assay [2] is 2.80.

As for `C=C(OP(=O)(O)O)C(=O)O` [PEP, phosphoenolpyruvate], the “kcat/KM relative to maize H6” value in assay [3] was 38%.
